# US9783513B2, “STAT3 inhibitors and their anticancer use” (Ohio State Innovation Foundation, priority 2012, dated 2017)
# Like-named read-outs stand apart in the source and are kept apart here.
# Tests used:
# [1] = Toxicity assessment in tumor-free mice; assay type: in vivo, mouse; settings: C57BL/6 mice, IP 5 or 10 mg/kg daily, 7 days
# Description: In order to provide preliminary data regarding potential toxicities from dosing of LY5, C57BL/6 tumor-free mice were treated with daily intraperitoneal (IP) injections of LY5 at 5 or 10 mg/kg for 7 days. […] Additionally, LY5 at a dose of 5 mg/kg via IP for 5 days inhibited growth of OS-1 tumor xenografts (90% tumor volume compared to baseline), while tumor in vehicle treated mice continued to grow (143% tumor volume compared to baseline).
# [2] = system: human sarcoma cell line U2OS; experiment: Cell viability (MTT) assay, U2OS; assay type: cell-based; settings: Homo sapiens
# Description: Human sarcoma cell lines (RD2, RH30, U2OS) were seeded in 96-well plates at a density of 3,000 cells per well. The cells were incubated at 37° C. for a period of 24 hours. Different concentrations of LY-5 (0.1-10 μM), LY-3 (0.1-20 μM), and LLL12 (0.1-10 μM) prepared as a 20 mM stock solution in sterile DMSO were added in triplicate to the plates in the presence of 10% FBS. 3-(4,5-Dimethylthiazolyl)-2, 5-diphenyltetrazoliumbromide (MTT) was added to evaluate cell viability. The absorbance was read at 595 nm. IC50 values were determined using SigmaPlot 9.0 Software (Systat Software, Inc., San Jose, Calif.).
# Alternatively, cells were seeded in 96-well plates in triplicate at a density of 3,000 cells per well and given 24 hours to adhere. Cells were then treated with varying concentrations of the inhibitors in the presence of 10% FBS. The cells were incubated for 72 hours at 37° C. 25 μl of MTT dye (Sigma, #M5655) was added to each sample and incubated for 3.5 hours. After this, 100 μl of N,N-dimethylformamide (Sigma, #D4551) solubilization solution was added to each well. The absorbance at 450 nm was read the following day. Half-Maximal inhibitory concentrations (IC50) were determined using Sigma Plot 9.0 software (Systat Software Inc.).
# Table 6 below lists specific compounds as well as experimentally determined STAT3 activity in a cell-based assay. The STAT3 activity was determined using the cell viability assays with human sarcoma cell line U2OS as described above. The compounds in Table 6 were synthesized with methods identical or analogous to those described herein. The compound reference numbers (“Ref. No.”) in Table 6 correspond to the compound numbers used in Table 3.
# acetyl-STAT3 = experiment: Western blot, acetyl-STAT3; assay type: cell-based, human; settings: 2 h
# STAT5 = experiment: Western blot, STAT5 after OSM stimulation; assay type: cell-based, human; settings: MCF-7; 1 and 2.5 μM; OSM 50 ng/mL
# Description: RH30 cells were treated with DMSO, LY-5 (0.25-1 μM) and LY-3 (0.5-2.5 μM) prepared as a 20 mM stock solution in sterile DMSO at 60% to 80% confluence in the presence of 10% FBS for 24 hours. The sarcoma cell line EW8 was treated with DMSO and LY-5 (0.5-2.5 μM) prepared as a 20 mM stock solution in sterile DMSO at 60% to 80% confluence in the presence of 10% FBS for 24 hours. MCF-7 cells and DAOY cells were treated with DMSO, 25-50 ng/ml of IL-6, LY-5 (0.25-1 μM) or LY-3 (0.5-2.5 μM) prepared as a 20 mM stock solution in sterile DMSO, protein expressions of P-STAT3 (Tyr705) and STAT3 were tested. DAOY cells were treated with DMSO, 50 ng/ml of IFN-γ, LY-5 (1-5 μM) prepared as a 20 mM stock solution in sterile DMSO, protein expressions of P-STAT3 (Tyr705) and STAT3 were tested. MCF-7 cells were treated with DMSO, 50 ng/ml of OSM, LY-5 (1-2.5 μM) or LLL12 (1-2.5 μM) prepared as a 20 mM stock solution in sterile DMSO, protein expressions of P-STAT3 (Tyr705), P-STAT1, P-STAT5, P-ERK (T202/Y204), P-AKT, STAT3 and STAT1 were tested.
# MCF-7 breast cancer cells were seeded in 10 cm plates and allowed to adhere overnight. The following day, the cells were serum-starved. The cells were then left untreated or were treated with LY-5 and LLL12 (1 μM and 2.5 μM) prepared as a 20 mM stock solution in sterile DMSO or DMSO. […] The cells were harvested after 30 minutes and analyzed by Western blot.
smiles,measurement,setting,value
"NS(=O)(=O)c1cccc2c1C(=O)C=C(Nc1cccnc1)C2=O [LY-5, 5,8-dioxo-6-(pyridin-3-ylamino)-5,8-dihydronaphthalene-1-sulfonamide]","erythrocyte, leukocyte and platelet parameters",[1],no differences
same,organ weights as a percentage of body weight,[1],did not vary significantly
same,histologic evaluation of organs,[1]; n=2,no abnormalities
same,IC50,"[2]; Table 2, cell line not given, read-out: IC50",0.5 µM
same,IC50,"[2]; Table 7, read-out: IC50 U2OS",0.52 µM
same,IC50,"[2]; Table 8, read-out: IC50 values vs. cell lines, U2OS",0.52 µM
same,acetyl-STAT3,"acetyl-STAT3; RD2, 0-2.5 μM",decrease in STAT3 phosphorylation and acetyl-STAT3
same,acetyl-STAT3,"acetyl-STAT3; UW288-1 and UW426, 0-5 μM",inhibits
same,inhibition of STAT5,STAT5,exhibit inhibition
